Test results: patent US20090124636A1, “CHEMICAL COMPOUNDS” (priority 2006, published 2009)

These compounds were tested on HIV-1 fusion (assay: cells). Conditions: HIV cell fusion assay; HeLa P4 (CCR5/CD4) and CHO-Tat10 (gp160 JRFL) cells; read-out: IC50.
Format: cell-based
Protocol: The gp160 induced cell-cell fusion assay uses a HeLa P4 cell line and a CHO-Tat10 cell line.
The HeLa P4 cell line expresses CCR5 and CD4 and has been transfected with HIV-1 LTR-β-Galactosidase. The media for this cell line is Dulbecco modified eagle's medium (D-MEM) (without L-glutamine) containing 10% foetal calf serum (FCS), 2 mM L-glutamine, penicillin/streptomycin (Pen/Strep; 100 U/mL penicillin+[…] streptomycin), and 1 μg/ml puromycin.
The CHO cell line is a Tat (transcriptional trans activator)-expressing clone from a CHO JRR17.1 cell line that has been transfected with pTat puro plasmid. The media for this cell line is rich medium for mammalian cell culture originally developed at Roswell Park Memorial Institute RPMI1640 (without L-glutamine) containing 10% FCS, 2 mM L-glutamine, 0.5 mg/ml Hygromycin B and 12 μg/ml puromycin. The CHO JRR17.1 line expresses gp160 (JRFL) and is a clone that has been selected for its ability to fuse with a CCR5/CD4 expressing cell line.
Upon cell fusion, Tat present in the CHO cell is able to transactivate the HIV-1 long terminal repeat (LTR) present in the HeLa cell leading to the expression of the β-Galactosidase enzyme. This expression is then measured using a Fluor Ace™ β-Galactosidase reporter assay kit (Bio-Rad cat no. 170-3150). This kit is a quantitative fluorescent assay that determines the level of expression of β-galactosidase using 4-methylumbelliferyl-galactopyranoside (MUG) as substrate. β-Galactosidase hydrolyses the fluorogenic substrate resulting in release of the fluorescent molecule 4-methylumbelliferone (4 MU). Fluorescence of 4-methylumbelliferone is then measured on a fluorometer using an excitation wavelength of 360 nm and emission wavelength of 460 nm.
`Cc1cccc(C)c1C(=O)N1CCC(N2CC[C@@H](N(Cc3ccccc3F)C(=O)C3CC3)C2)CC1` [Example 3] showed an IC50 of 0.2 nM.
Compound `Cc1ncnc(C)c1C(=O)N1C2CCC1CC(N1CCC(N(Cc3ccccc3)C(=O)C3CC3)C1)C2` (centres unmarked) [Example 71] has an IC50 of 4.27 nM.
`Cc1ncnc(C)c1C(=O)N1CCC(N2CC[C@@H](N(Cc3ccccc3)C(=O)OC(C)C)C2)CC1` [Example 36] showed an IC50 of 52 nM.
In the case of `Cc1ccccc1C(=O)N1C2CCC1CC(N1CCC(N(Cc3ccccc3)C(=O)C3CC3)C1)C2` (centres unmarked) [Example 72], the IC50 is reported as 97.3 nM.
Work on `Cc1cccc(C)c1C(=O)N1CCC(N2CC[C@@H](N(Cc3ccccc3)C(=O)C3CC3)C2)CC1` [Example 10] yielded an IC50 of 1.99 nM.
`CCOc1ccccc1C(=O)N1CCC(N2CC[C@@H](N(Cc3ccccc3)C(=O)C3CCC3)C2)CC1` [Example 40] showed an IC50 of 120 nM.
With `Cc1ncnc(C)c1C(=O)N1CCC(N2CC[C@@H](N(Cc3ccccc3)C(=O)C3CC(F)(F)C3)C2)CC1` [Example 34] the IC50 was 8.51 nM.
For `COCC(=O)N(Cc1ccccc1F)[C@@H]1CCN(C2(C)CCN(C(=O)c3ccc(F)cc3Cl)CC2)C1` [Example 66], the IC50 was 28.5 nM.
`Cc1ncnc(C)c1C(=O)N1CCC(N2CC[C@@H](N(Cc3ccccc3)C(=O)C3CC3)C2)CC1` [Example 35] gave an IC50 of 9.9 nM.
Work on `O=C(c1c(F)cccc1Cl)N1CCC(N2CC[C@@H](N(Cc3ccccc3)C(=O)CC3CC3)C2)CC1` [Example 51] yielded an IC50 of 100 nM.
With `Cc1cccc(C)c1C(=O)N1CCC(N2CC[C@@H](N(Cc3ccccn3)C(=O)C3CC3)C2)CC1` [Example 16] the IC50 was 237 nM.
`Cc1cccc(C)c1C(=O)N1CCC(C)(N2CC[C@@H](N(C=O)Cc3ccccc3F)C2)CC1` [Example 69] gave an IC50 of 123 nM.
`Cc1ccnc(C)c1C(=O)N1CCC(N2CC[C@@H](N(Cc3ccccc3F)C(=O)C(C)C)C2)CC1` [Example 27] was tested, and the IC50 was 8.8 nM.
`CC(=O)N(Cc1ccccc1)[C@@H]1CCN(C2CCN(C(=O)c3c(C)ccnc3C)CC2)C1` [Example 29] gave an IC50 of 14 nM.
With `Cc1ccccc1C(=O)N1CCC(N2CC[C@@H](N(Cc3ccccc3)C(=O)C3CC3)C2)CC1` [Example 17] the IC50 was 40.8 nM.
With `O=C(c1c(F)cccc1Cl)N1CCC(N2CC[C@@H](N(Cc3ccccc3)C(=O)C3CC3)C2)CC1` [Example 49] the IC50 was 28.5 nM.

Same assay, conditions: Human immunodeficiency virus 1, HeLaP4
Work on `Cc1cccc(C)c1C(=O)N1CCC(C)(N2CC[C@@H](N(Cc3ccccc3)C(=O)C3CC3)C2)CC1` [Example 61, N-benzyl-N-{(3R)-1-[1-(2,6-dimethylbenzoyl)-4-methylpiperidin-4-yl]pyrrolidin-3-yl}cyclopropanecarboxamide] yielded an IC50 of 0.23 nM.
